Assay results as given in patent US10428051B2 (priority 2015, dated 2019).

What follows are molecules tested against human σ1 receptor (Homo sapiens, UniProt Q99720) (assay: biochemical). Details: not given.
Type: binding
Set-up: μ and σ1 dual (binding to the σ1 receptor and the μ-opioid receptor expressed as Ki): key to the marks not given beside the values

Sequence of human σ1 receptor (Q99720 whole entry): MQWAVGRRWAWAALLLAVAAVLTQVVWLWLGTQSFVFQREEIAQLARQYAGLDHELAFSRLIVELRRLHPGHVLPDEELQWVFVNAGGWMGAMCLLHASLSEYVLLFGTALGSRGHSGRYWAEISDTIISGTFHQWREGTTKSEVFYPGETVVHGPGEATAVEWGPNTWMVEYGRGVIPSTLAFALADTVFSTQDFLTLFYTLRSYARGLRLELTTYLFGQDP

Q: With CCC(=O)N(CC1(N2CCN(CCOCC(C)(C)F)CC2)CCOCC1)c1cccc(C(F)(F)F)n1 [Example 189, N-((4-(4-(2-(2-fluoro-2-methylpropoxy)ethyl)piperazin-1-yl)tetrahydro-2H-pyran-4-yl)methyl)-N-(6-(trifluoromethyl)pyridin-2-yl)propionamide] as the molecule, how does the Ki read?
A: Its Ki is under 100 nM.

Q: With CCC(=O)N(CC1(N2CCN(CC(C)(C)F)CC2)CCOCC1)c1cccc(C(F)(F)F)n1 [Example 190, N-((4-(4-(2-fluoro-2-methylpropyl)piperazin-1-yl)tetrahydro-2H-pyran-4-yl)methyl)-N-(6-(trifluoromethyl)pyridin-2-yl)propionamide] as the molecule, how does the Ki read?
A: Its Ki is under 500 nM.

Q: CCC(=O)N(CC1(N2CCN(CC(C)(C)OC)CC2)CCOCC1)c1cccc(C(F)(F)F)n1 [Example 191, N-((4-(4-(2-Methoxy-2-methylpropyl)piperazin-1-yl)tetrahydro-2H-pyran-4-yl)methyl)-N-(6-(trifluoromethyl)pyridin-2-yl)propionamide] was tested. Which Ki did it give?
A: The Ki was over 500 nM.

Q: With CCC(=O)N(CC1(N2CCN(CCc3ncccc3F)CC2)CCOCC1)c1cccc(C(F)(F)F)n1 [Example 192, N-((4-(4-(2-(3-Fluoropyridin-2-yl)ethyl)piperazin-1-yl)tetrahydro-2H-pyran-4-yl)methyl)-N-(6-(trifluoromethyl)pyridin-2-yl)propionamide] as the molecule, how does the “μ and σ1 dual (binding to the σ1 receptor and the μ-opioid receptor expressed as Ki)” value read?
A: Its value is “++”.

Q: For CCC(=O)N(CC1(N2CCN(Cc3ccccc3)CC2)CCC1)c1cccc(C(F)(F)F)n1 [Example 197, N-((1-(4-benzylpiperazin-1-yl)cyclobutyl)methyl)-N-(6-(trifluoromethyl)pyridin-2-yl)propionamide], which Ki is on record?
A: Its Ki is under 100 nM.

Q: How did the Ki turn out when CCC(=O)N(CC1(N2CC3CN(CC(C)C)CC3C2)CCOCC1)c1cccc(C(F)(F)F)n1 (stereo not shown) [Example 199, N-((4-(5-isobutylhexahydropyrrolo[3,4-c]pyrrol-2(1H)-yl)tetrahydro-2H-pyran-4-yl)methyl)-N-(6-(trifluoromethyl)pyridin-2-yl)propionamide] was run?
A: The Ki was over 500 nM.

Q: CCC(=O)N(CC1(N2CCN(CCc3cccnc3)CC2)CCOCC1)c1cccc(C(F)(F)F)n1 [Example 201, N-((4-(4-(2-(pyridin-3-yl)ethyl)piperazin-1-yl)tetrahydro-2H-pyran-4-yl)methyl)-N-(6-(trifluoromethyl)pyridin-2-yl)propionamide] was tested. Which “μ and σ1 dual (binding to the σ1 receptor and the μ-opioid receptor expressed as Ki)” value did it give?
A: Its value is “++”.

Q: With CCOCCN1CCN(C2(CN(C(=O)CC)c3cccc(C(F)(F)F)n3)CCC2)CC1 [Example 202, N-((1-(4-(2-ethoxyethyl)piperazin-1-yl)cyclobutyl)methyl)-N-(6-(trifluoromethyl)pyridin-2-yl)propionamide] as the molecule, how does the Ki read?
A: The Ki was under 500 nM.

Q: For CCC(=O)N(CC1(N2CCN(CC(C)C)CC2)CCC1)c1cccc(C(F)(F)F)n1 [Example 203, N-((1-(4-isobutylpiperazin-1-yl)cyclobutyl)methyl)-N-(6-(trifluoromethyl)pyridin-2-yl)propionamide], which Ki is on record?
A: The Ki was under 500 nM.

Q: Which Ki does the source give for CCC(=O)N(CC1(N2CCN(CC(C)C)CC2)CCSCC1)c1cccc(C(F)(F)F)n1 [Example 204, N-((4-(4-isobutylpiperazin-1-yl)tetrahydro-2H-thiopyran-4-yl)methyl)-N-(6-(trifluoromethyl)pyridin-2-yl)propionamide] here?
A: The Ki was under 500 nM.

Q: How did the Ki turn out when CCOCCN1CCN(C2(CN(C(=O)CC)c3cccc(C(F)(F)F)n3)CCSCC2)CC1 [Example 205, N-((4-(4-(2-ethoxyethyl)piperazin-1-yl)tetrahydro-2H-thiopyran-4-yl)methyl)-N-(6-(trifluoromethyl)pyridin-2-yl)propionamide] was run?
A: Its Ki is under 500 nM.

Q: How did the Ki turn out when CCC(=O)N(CC1(N2CCN(CCc3ccncc3)CC2)CCOCC1)c1cccc(C(F)(F)F)n1 [Example 206, N-((4-(4-(2-(pyridin-4-yl)ethyl)piperazin-1-yl)tetrahydro-2H-pyran-4-yl)methyl)-N-(6-(trifluoromethyl)pyridin-2-yl)propionamide] was run?
A: Its Ki is under 500 nM.

Same assay, conditions: read-out: μ and σ1 dual (binding to the σ1 receptor and the μ-opioid receptor expressed as Ki)

Q: CCOCCN1CC2CN(C3(CN(C(=O)CC)c4cccc(C(F)(F)F)n4)CCOCC3)CC2C1 (stereo not shown) [Example 200, N-((4-(5-(2-ethoxyethyl)hexahydropyrrolo[3,4-c]pyrrol-2(1H)-yl)tetrahydro-2H-pyran-4-yl)methyl)-N-(6-(trifluoromethyl)pyridin-2-yl)propionamide] was tested. Which Ki did it give?
A: Its Ki is over 500 nM.
